# Reference: patent US12502390B2, “Compositions comprising tigolaner for controlling parasites” ([…], priority 2019, dated 2025)
# Read-outs that look alike come from different tables or passages of the source.
# How the values were obtained:
# [1] = system: Ctenocephalides felis; conditions: Ctenocephalides felis oral test; 100 ppm; cited from earlier work
# [2] = Solubility of tigolaner in solketal (1,2-isopropylideneglycerol); assay type: physicochemical
# Excerpt: In another embodiment of the composition the solvent component comprises only 1,2-isopropylideneglycerol.
# [3] = system: Musca domestica; conditions: 100 ppm; cited from earlier work
# [4] = system: Ctenocephalides felis; conditions: Ctenocephalides felis contact test; 1 μg/cm^2; cited from earlier work
# [5] = system: Amblyomma hebraeum; conditions: 100 ppm; cited from earlier work
# [6] = system: Ctenocephalides felis; conditions: rats, application rate 10 mg/kg, cited from earlier work
# [7] = system: Ixodes ricinus; conditions: Ixodes ricinus contact test; 1 μg/cm^2; cited from earlier work
# [8] = system: Rhipicephalus sanguineus; conditions: Rhipicephalus sanguineus contact test; 1 μg/cm^2; cited from earlier work
# [9] = system: Lucilia cuprina; conditions: 100 ppm; cited from earlier work
# [10] = system: Dermacentor variabilis; conditions: rats; day 2; application rate 10 mg/kg; cited from earlier work
# [11] = system: Boophilus microplus; conditions: Boophilus microplus dip test; 100 ppm; cited from earlier work
# [12] = system: Boophilus microplus; conditions: Boophilus microplus injection test; 20 μg/tick; cited from earlier work
# [13] = system: Amblyomma hebraeum; conditions: Amblyomma hebraeum contact test; 1 μg/cm^2; cited from earlier work
compound,measurement,setting,value
Cn1nc(C(F)(F)C(F)(F)F)c(C(F)(F)F)c1-n1cc(-c2ccc(Cl)c(C(=O)NC3(C#N)CC3)c2)cn1 [Tigolaner],efficacy,[1],100%
same,solubility of tigolaner in solketal in the presence of praziquantel,"[2]; in the presence of praziquantel, in particular of 7.5 to 8.5% w/w of praziquantel",more than 10.5 % w/w
same,"effect of lactic acid on solubility of tigolaner in 1,2-isopropylideneglycerol",[2]; presence of lactic acid,slightly lowers the solubility
same,solubility of tigolaner in solketal alone,[2]; solketal alone,9.5-9.9 % w/w
same,efficacy,[3],100%
same,efficacy,[4],100%
same,efficacy,[5],100%
same,efficacy against fleas,[6]; day 2,> 95%
same,efficacy against fleas,[6]; day 9,> 90%
same,efficacy,[7],100%
same,efficacy,[8],100%
same,efficacy,[9],100%
same,efficacy against tick nymphs,[10],> 90%
same,efficacy,[11],100%
same,efficacy,[12],100%
same,efficacy,[13],100%
